Results reported in patent publication US10703843B2, “Compositions and methods for bonding glues, adhesives, and coatings to surfaces” (University of Virginia Patent Foundation, priority 2014, dated 2020).

Key:
[1] = Measured solubilities of ECA and PECA in solvents and of solvents in PECA; settings: ±10%; for Solubility (wt %) ECA in: solubility of ECA in the listed solvent; for Solubility (wt %) PECA in: solubility of PECA in the listed solvent; for Solubility (wt %) in PECA: solubility of the listed solvent in PECA
[2] = at 20° C.; from Refs [18], [19]; cited from earlier work
[3] = from Ref. [17]; cited from earlier work

Molecule	Solubility (wt %) ECA in [1]	Solubility (wt %) PECA in [1]	Solubility (wt %) in PECA [1]	σ surface tension [2] [mN/m]	ET^N normalized empirical parameter of solvent polarity [3]
COCCOC [1,2-dimethoxyethane]	miscible	miscible	miscible	–	–
CC(C)=O [acetone]	miscible	miscible	miscible	24.1	0.355
C1CCCCC1 [cyclohexane]	–	–	–	25.2	0.006
CCOCC [diethyl ether]	miscible	0.10 wt %	–	17.1	0.117
CCOC(C)=O [ethyl acetate]	–	–	–	24.1	0.228
CCCCCCC [n-heptane]	7.5 wt %	0.05 wt %	0.4 wt %	20.1	0.012
CCCCCC [n-hexane]	–	–	–	18.4	0.009
CCCCC [n-pentane]	11.4 wt %	0.11 wt %	0.8 wt %	16.1	0.009
Cc1ccccc1 [toluene]	–	–	–	–	0.099
xylene	miscible	0.24 wt %	–	29.3	0.074
